Laboratory results taken from ChEMBL document CHEMBL3526096, “Species differences in biliary clearance and possible relevance of hepatic uptake and efflux transporters involvement” (Drug Metab Dispos, 2013).

Columns and labels:
[1] = Drug excretion in iv dosed rat assessed as compound excreted into bile; type: ADME, organism-based; settings: read-out: Drug excretion
[2] = Drug excretion in human assessed as compound excreted into bile at 50 mg, iv after 24 hrs by T-tube method; type: ADME, organism-based; settings: read-out: Drug excretion
[3] = Drug excretion in human assessed as compound excreted into bile at 1 nmol/l, iv after 8 hrs; type: ADME, organism-based; settings: read-out: Drug excretion
Rattus norvegicus [4] = assay: Total biliary clearance in iv dosed Sprague-Dawley rat; type: ADME, organism-based, Bile; settings: in vivo
Canis familiaris [5] = assay: Total biliary clearance in iv dosed dog; type: ADME, organism-based, Canis lupus familiaris, Bile; settings: in vivo
Rattus norvegicus [6] = assay: Unbound biliary clearance in iv dosed Sprague-Dawley rat; type: ADME, organism-based, Bile; settings: in vivo
Homo sapiens [7] = assay: Unbound biliary clearance in human at 1 nmol/l, iv after 8 hrs; type: ADME, organism-based, Bile; settings: in vivo
[8] = Drug excretion in iv dosed Sprague-Dawley rat assessed as compound excreted into bile; type: ADME, organism-based; settings: read-out: Drug excretion
Canis familiaris [9] = assay: Unbound biliary clearance in iv dosed dog; type: ADME, organism-based, Canis lupus familiaris, Bile; settings: in vivo
[10] = Drug excretion in iv dosed dog assessed as compound excreted into bile; type: ADME, organism-based, Canis lupus familiaris; settings: read-out: Drug excretion
Homo sapiens [11] = assay: Total biliary clearance in human at 1 nmol/l, iv after 8 hrs by duodenal perfusion method; type: ADME, organism-based, Bile; settings: in vivo
Homo sapiens [12] = assay: Unbound biliary clearance in iv dosed human after 24 hrs by T-tube method; type: ADME, organism-based, Bile; settings: in vivo
Homo sapiens [13] = assay: Total biliary clearance in iv dosed human after 24 hrs by T-tube method; type: ADME, organism-based, Bile; settings: in vivo
Rattus norvegicus [14] = assay: Total biliary clearance in iv dosed rat; type: ADME, organism-based, Bile; settings: in vivo
Rattus norvegicus [15] = assay: Unbound biliary clearance in iv dosed rat; type: ADME, organism-based, Bile; settings: in vivo
[16] = Drug excretion in iv dosed human assessed as compound excreted into bile after 24 hrs by T-tube method; type: ADME, organism-based; settings: read-out: Drug excretion
[17] = Drug excretion in human assessed as compound excreted into bile; type: ADME; settings: read-out: Drug excretion
[18] = Drug excretion in human assessed as compound excreted into bile at 400 mg, po after 24 hrs by T-tube method
[19] = Drug excretion in rat assessed as compound excreted into bile at 10 mg/kg, iv
[20] = Drug excretion in human assessed as compound excreted into bile at 60 mg, po after 12 hrs by fecal extraction method
[21] = Drug excretion in iv dosed Wistar rat assessed as compound excreted into bile; type: ADME, organism-based; settings: read-out: Drug excretion
Rattus norvegicus [22] = assay: Total biliary clearance in Wistar rat at 10 mg/kg, iv; type: ADME, organism-based, Bile; design: dose 10 mg/kg, route intravenous; settings: in vivo
[23] = Drug excretion in Wistar rat assessed as compound excreted into bile at 10 mg/kg, iv; type: ADME, organism-based; design: dose 10 mg/kg, route intravenous; settings: read-out: Drug excretion
Rattus norvegicus [24] = assay: Unbound biliary clearance in Wistar rat at 10 mg/kg, iv; type: ADME, organism-based, Bile; design: dose 10 mg/kg, route intravenous; settings: in vivo
[25] = Drug excretion in iv dosed human assessed as compound excreted into bile after 20 hrs; type: ADME, organism-based; settings: read-out: Drug excretion
Homo sapiens [26] = assay: Unbound biliary clearance in iv dosed human after 20 hrs; type: ADME, organism-based, Bile; settings: in vivo
Homo sapiens [27] = assay: Total biliary clearance in iv dosed human after 20 hrs by duodenal aspiration method; type: ADME, organism-based, Bile; settings: in vivo
[28] = Drug excretion in Sprague-Dawley rat assessed as compound excreted into bile at 5 mg/kg, iv; type: ADME, organism-based; design: dose 5 mg/kg, route intravenous; settings: read-out: Drug excretion
Rattus norvegicus [29] = assay: Total biliary clearance in Sprague-Dawley rat at 5 mg/kg, iv; type: ADME, organism-based, Bile; design: dose 5 mg/kg, route intravenous; settings: in vivo
Rattus norvegicus [30] = assay: Unbound biliary clearance in Sprague-Dawley rat at 5 mg/kg, iv; type: ADME, organism-based, Bile; design: dose 5 mg/kg, route intravenous; settings: in vivo
[31] = Drug excretion in iv dosed human assessed as compound excreted into bile after 72 hrs by T-tube method; type: ADME, organism-based; settings: read-out: Drug excretion
Homo sapiens [32] = assay: Total biliary clearance in iv dosed human after 72 hrs by T-tube method; type: ADME, organism-based, Bile; settings: in vivo
Homo sapiens [33] = assay: Unbound biliary clearance in iv dosed human after 72 hrs by T-tube method; type: ADME, organism-based, Bile; settings: in vivo
[34] = Drug excretion in po dosed human assessed as compound excreted into bile after 24 hrs by T-tube method; type: ADME, organism-based; settings: read-out: Drug excretion

CNC(=C[N+](=O)[O-])NCCSCc1ccc(CN(C)C)o1 [RANITIDINE] gave a dose excreted [1] of 5% and a dose excreted at 24 h [2] of 1.5%.

In the case of C[C@H]1O[C@@H](O[C@H]2[C@@H](O)C[C@H](O[C@H]3[C@@H](O)C[C@H](O[C@H]4CC[C@@]5(C)[C@H](CC[C@@H]6[C@@H]5C[C@@H](O)[C@]5(C)[C@@H](C7=CC(=O)OC7)CC[C@]65O)C4)O[C@@H]3C)O[C@@H]2C)C[C@H](O)[C@@H]1O [DIGOXIN], the dose excreted at 8 h [3] is reported as 41%, the CL (Rattus norvegicus [4]) is reported as 3.03 mL/min/kg and the CL (Canis familiaris [5]) is reported as 1.313 mL/min/kg. For the same compound, the CL free (Rattus norvegicus [6]) was 4.329 mL/min/kg, the CL free (Homo sapiens [7]) was 2.279 mL/min/kg and the dose excreted [8] was 31%. The CL free (Canis familiaris [9]) was 2.68 mL/min/kg, the dose excreted [10] was 7% and the CL (Homo sapiens [11]) was 1.595 mL/min/kg.

Compound CN(Cc1cnc2nc(N)nc(N)c2n1)c1ccc(C(=O)N[C@@H](CCC(=O)O)C(=O)O)cc1 [METHOTREXATE] has a CL free (Homo sapiens [12]) of 1.108 mL/min/kg, a CL (Homo sapiens [13]) of 0.048 mL/min/kg and a CL (Rattus norvegicus [14]) of 9.6 mL/min/kg. For the same compound, the CL (Canis familiaris [5]) was 0.217 mL/min/kg, the CL free (Rattus norvegicus [15]) was 12.47 mL/min/kg and the dose excreted at 24 h [16] was 10%. The CL free (Canis familiaris [9]) was 0.344 mL/min/kg and the dose excreted [1] was 64%.

For N=C(N)N1CCC[C@@H](CNC(=O)C[C@H](NS(=O)(=O)c2ccc3ccccc3c2)C(=O)N(CC(=O)O)C2CC2)C1 [NAPSAGATRAN ANHYDROUS], the dose excreted [17] was 60%, the dose excreted [1] was 61% and the dose excreted [10] was 97%.

O=C(O)c1cn(C2CC2)c2cc(N3CCNCC3)c(F)cc2c1=O [CIPROFLOXACIN] showed a dose excreted at 24 h [18] of 0.5% and a dose excreted [19] of 10%.

Compound CC(C)(C(=O)O)c1ccc(C(O)CCCN2CCC(C(O)(c3ccccc3)c3ccccc3)CC2)cc1 (centres undefined) [FEXOFENADINE] has a dose excreted at 12 h [20] of 23% and a dose excreted [21] of 28%.

CC[C@H]1OC(=O)[C@H](C)[C@@H](O[C@H]2C[C@@](C)(OC)[C@@H](O)[C@H](C)O2)[C@H](C)[C@@H](O[C@@H]2O[C@H](C)C[C@H](N(C)C)[C@H]2O)[C@](C)(O)C[C@@H](C)C(=O)[C@H](C)[C@@H](O)[C@]1(C)O [ERYTHROMYCIN] showed a CL (Rattus norvegicus [22]) of 17.4 mL/min/kg, a dose excreted [23] of 30% and a CL free (Rattus norvegicus [24]) of 22.38 mL/min/kg. For the same compound, the CL (Canis familiaris [5]) was 2.376 mL/min/kg, the CL free (Canis familiaris [9]) was 4.483 mL/min/kg and the dose excreted at 20 h [25] was 13%. For the same compound, the CL free (Homo sapiens [26]) was 7.169 mL/min/kg, the dose excreted [10] was 5% and the CL (Homo sapiens [27]) was 1.147 mL/min/kg.

For COc1cccc2c1C(=O)c1c(O)c3c(c(O)c1C2=O)C[C@@](O)(C(=O)CO)C[C@@H]3O[C@H]1C[C@H](N)[C@H](O)[C@H](C)O1 [DOXORUBICIN], the dose excreted [28] was 17%, the CL free (Homo sapiens [12]) was 7.268 mL/min/kg and the CL (Homo sapiens [13]) was 2.035 mL/min/kg. The CL (Rattus norvegicus [29]) was 3.68 mL/min/kg, the CL (Canis familiaris [5]) was 1.72 mL/min/kg and the CL free (Rattus norvegicus [30]) was 10.82 mL/min/kg. The dose excreted at 24 h [16] was 14%, the CL free (Canis familiaris [9]) was 5.059 mL/min/kg and the dose excreted [10] was 10%.

In the case of CC[C@H](C)C(=O)O[C@H]1C[C@H](O)C=C2C=C[C@H](C)[C@H](CC[C@@H](O)C[C@@H](O)CC(=O)O)[C@H]21 [PRAVASTATIN], the CL free (Homo sapiens [12]) is reported as 6.21 mL/min/kg, the CL (Homo sapiens [13]) is reported as 3.105 mL/min/kg and the CL (Rattus norvegicus [14]) is reported as 27.5 mL/min/kg. The CL free (Rattus norvegicus [15]) was 78.57 mL/min/kg, the dose excreted at 24 h [16] was 23% and the dose excreted [1] was 40%.

With CC[C@]1(O)C[C@H]2CN(CCc3c([nH]c4ccccc34)[C@@](C(=O)OC)(c3cc4c(cc3OC)N(C=O)[C@H]3[C@@](O)(C(=O)OC)[C@H](OC(C)=O)[C@]5(CC)C=CCN6CC[C@]43[C@@H]65)C2)C1 [VINCRISTINE] the CL (Rattus norvegicus [4]) was 33.1 mL/min/kg, the dose excreted at 72 h [31] was 10% and the CL free (Rattus norvegicus [6]) was 84.87 mL/min/kg. It also gave a dose excreted [8] of 43%, a CL (Homo sapiens [32]) of 0.209 mL/min/kg and a CL free (Homo sapiens [33]) of 0.523 mL/min/kg.

CC1=C(C(=O)O)N2C(=O)[C@@H](NC(=O)[C@H](N)c3ccccc3)[C@H]2SC1 [CEPHALEXIN ANHYDROUS] gave a dose excreted [1] of 32%.

In the case of CCC(=O)C(CC(C)N(C)C)(c1ccccc1)c1ccccc1 (centres undefined) [METHADONE], the dose excreted [1] is reported as 9% and the dose excreted at 24 h [34] is reported as 0.06%.
